Assay results reported in article PMC3894197, “Penam Sulfones and β-Lactamase Inhibition: SA2-13 and the Importance of the C2 Side Chain Length and Composition” (PLoS ONE, 2014).

What was measured:
SHV-1 [1] = target: T1, SHV-1 (Klebsiella pneumoniae, UniProt P0AD64); assay: IC50 by nitrocefin hydrolysis after pre-incubation of enzyme and inhibitor; format: biochemical
T1 construct: made in house
Protocol: (§1) Measurements were performed using glass cuvettes with 1 mL final volume in 1 mM phosphate-buffered saline (PBS) at pH 7.4 as previously described.

wt SHV-1 = target: T2, wt SHV-1 (Klebsiella pneumoniae, UniProt P0AD64); assay: biochemical; format: biochemical
T2 construct: made in house
T2 sequence (P0AD64 22-286): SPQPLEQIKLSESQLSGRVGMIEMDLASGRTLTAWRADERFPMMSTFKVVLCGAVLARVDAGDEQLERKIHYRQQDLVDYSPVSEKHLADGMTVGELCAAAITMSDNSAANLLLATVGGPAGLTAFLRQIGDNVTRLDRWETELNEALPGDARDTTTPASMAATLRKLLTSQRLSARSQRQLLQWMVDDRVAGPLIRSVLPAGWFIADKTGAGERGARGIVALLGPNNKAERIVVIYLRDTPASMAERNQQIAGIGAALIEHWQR
Protocol: as §1

SHV-1 [2] = target: T1, SHV-1; assay: Inactivation kinetics (kinact, KI, kinact/KI) with nitrocefin; format: biochemical
Protocol: kinact (the first-order rate constant of inactivation) was determined by monitoring the inactivation of the enzyme by increasing concentrations of inhibitor over a time course using 21 nM of enzyme and 100 µM of nitrocefin according to a previously published method. The k obs determined using Origin (OriginLab Corporation) to plot the reciprocal of the ordinate of the intersection of the straight lines obtained from the initial velocity of inhibition, v o, and the final velocity of inhibition, vf. Each k obs was plotted against the inhibitor concentration [I] and fit to equation 2 to calculate k inact and k inact/K I. [drawing 2] (2)

SHV-1 [3] = target: T1, SHV-1; assay: Partition ratio (turnover number, tn); format: biochemical; settings: SHV-1, 24 hour incubation, loss of >90% nitrocefin hydrolysis
Protocol: The partition ratio (turnover number, t n = k cat/k inact) or the partitioning of the initial enzyme-inhibitor complex between hydrolysis and enzyme inactivation was measured by incubating fixed enzyme concentrations with increasing amounts of inhibitor over a 24 hour period in a total volume of 100 µL as described. After 24 hours, a 20 µL aliquot of the incubation mix was removed and the steady-state hydrolysis of nitrocefin was measured and compared to an uninhibited control. The t n was determined as the inhibitor proportion that led to a loss of >90% of nitrocefin hydrolysis by the enzyme.

[4] = system: E. coli ATCC 35218 containing TEM-1; assay: Antimicrobial disc assay; format: cell-based, Escherichia coli; settings: 10 µg ampicillin and 10 µg inhibitor; disc and ampicillin alone 6 mm
Protocol: (§2) In brief, paper discs (6 mm diameter) were soaked with 10 µg inhibitor and 10 µg of ampicillin or cephalothin. Discs were placed on Mueller-Hinton (M-H) agar plates plated with 10^4–10^5 CFUs of Escherichia coli DH10B harboring SHV-1 or PDC-3 or E. coli ATCC 35218 containing TEM-1. Measured zone clearing diameters were used to determine susceptibility.
(§3) Supplementary file pone.0085892.s003.docx: Table S1 Antimicrobial disc assays. These assays were performed with 10 µg ampicillin and 10 µg inhibitor. The size of the disc and the ampicillin zone size alone is 6 mm. (DOCX) Click here for additional data file.

E. coli DH10B PDC-3 = assay: Antimicrobial disc assay; format: cell-based, Escherichia coli; settings: for Disc Assay Zone E. coli DH10B PDC-3: 10 µg ampicillin and 10 µg inhibitor, disc and ampicillin alone 6 mm
Protocol: as §2, §3

E. coli DH10B SHV-1 = assay: Antimicrobial disc assay; format: cell-based, Escherichia coli; settings: for Disc Assay Zone E. coli DH10B SHV-1: 10 µg ampicillin and 10 µg inhibitor, disc and ampicillin alone 6 mm
Protocol: as §2, §3

KPC-2 = system: KPC-2; set-up: method as in PMID 22330909; settings: the defined K i represents the K m used in Ke et al.; cited from earlier work
SHV K234R [5] = target: T3, SHV K234R (Klebsiella pneumoniae, UniProt P0AD64, K230R); assay: biochemical; format: biochemical
T3 construct: GST (N, cleaved yes); made in house; host or cells: Origami2 (DE3) E. coli
T3 sequence (P0AD64 22-286 K230R): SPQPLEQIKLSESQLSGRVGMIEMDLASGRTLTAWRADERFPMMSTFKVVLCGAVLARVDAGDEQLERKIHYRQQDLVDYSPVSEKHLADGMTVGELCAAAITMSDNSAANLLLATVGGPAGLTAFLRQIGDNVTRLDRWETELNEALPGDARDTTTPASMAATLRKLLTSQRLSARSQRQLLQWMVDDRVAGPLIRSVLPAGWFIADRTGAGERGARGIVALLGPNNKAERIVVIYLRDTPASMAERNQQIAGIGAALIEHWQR
Protocol: as §1

SHV-1 [6] = target: T1, SHV-1; assay: Reactivation of β-lactamase (k obs react) after inhibitor/enzyme incubation; format: biochemical; settings: SHV-1, 90:1 inhibitor:enzyme, 30 min incubation
Protocol: Then, unbound inhibitor was washed out with a Macro Spin Column G10 (The Nest Group). A competition assay was performed with 100 µM of nitrocefin and a 5 µL aliquot of the incubated mixture at three different time points (5, 30, and 1440 min) to determine the reactivation of the enzyme. Tazobactam kinetic profiles are included for comparison. EnzFitter™ (Biosoft) and Microsoft Excel were used to analyze the data.

SHV K234R [7] = target: T3, SHV K234R; assay: Circular dichroism thermal denaturation; settings: CD at 208 nm, apo-K234R 48.2°C
Protocol: (§4) Circular dichroism (CD) was carried out on the SHV-1 and the SHV K234R proteins with and without SA2-13 and this is presented in Figure S1. In short, CD was performed on a JASCO J-815 spectrometer with a Peltier-effect temperature controller (GE Healthcare) as previously described. Quartz cells with a 0.1 cm pathlength were used for experiments (Hellma). Thermal denaturation was performed from 22–72°C with a heating rate of 2°C/min and raw data was corrected for the fraction of denatured protein (f u). The collected data at 208 nm was utilized to calculate a melting temperature (T m).

SHV-1 [8] = target: T1, SHV-1; assay: Circular dichroism thermal denaturation; settings: CD at 208 nm, apo-SHV-1 54.2°C
Protocol: as §4

SHV-1 [9] = target: T1, SHV-1; settings: cited from earlier work

T1 sequence (P0AD64 22-286): as the sequence (P0AD64 22-286) above

| SMILES | IC50 (SHV-1 [1]) | Ki (wt SHV-1) | Ki (SHV-1 [2]) | k inact/K I (SHV-1 [2]; SHV-1) | t n 24h (SHV-1 [3]) | Disc Assay Zone E. coli ATCC 35218 (TEM-1) [4] | Disc Assay Zone E. coli DH10B PDC-3 (E. coli DH10B PDC-3) | Disc Assay Zone E. coli DH10B SHV-1 (E. coli DH10B SHV-1) | k obs react 30 min (SHV-1 [6]) | also measured |
| --- | --- | --- | --- | --- | --- | --- | --- | --- | --- | --- |
| CC1(COC(=O)CCCCC(=O)O)C(C(=O)O)N2C(=O)CC2S1(=O)=O (centres unmarked) [PSR-4-157] | 160 ± 10 nM | 1700 ± 100 nM | 1000 ± 200 nM | 100000 ± 20000 M⁻¹ s⁻¹ | >1500 | 11 mm | 6 mm | 6 mm |  | fold higher IC50 compared to SA2-13 (SHV-1 [1]; SHV-1): 2 fold |
| CC1(C(=O)OCC(N)=O)C(C(=O)O)N2C(=O)CC2S1(=O)=O (centres unmarked) [PSR-3-226] | 370 ± 30 nM | 2600 ± 300 nM | 1000 ± 100 nM | 60000 ± 10000 M⁻¹ s⁻¹ | >1500 | 12 mm | 12 mm | 6 mm |  | microbial activity versus AmpC (PDC-3) expressed in E. coli DH10B (E. coli DH10B PDC-3; disc assay): had microbial activity; K m against KPC-2 (KPC-2): 3.8 ± 0.4 µM |
| C[C@]1(COC(=O)CCCC(=O)O)[C@H](C(=O)O)N2C(=O)C[C@H]2S1(=O)=O [SA2-13] | 81 ± 7 nM | 1700 ± 100 nM | 190 ± 10 nM | 370000 ± 60000 M⁻¹ s⁻¹ | 120 | 14 mm | 6 mm | 6 mm | 0.004 ± 0.001 s⁻¹ | Ki (SHV K234R [5]): 2100 ± 200 nM; fold increase of K i for K234R SHV relative to wt SHV-1 (SHV K234R [5]; K234R vs wt SHV-1): 2 fold; melting temperature Tm of SHV K234R with inhibitor (SHV K234R [7]): unaffected; melting temperature Tm of SHV K234R with inhibitor (SHV K234R [7]; listed as MN-2-261): 48.7 °C; melting temperature Tm of SHV-1 with inhibitor (SHV-1 [8]): unaffected; melting temperature Tm of SHV-1 with inhibitor (SHV-1 [8]; listed as MN-2-261): 54.5 °C; k react fold decrease compared to tazobactam (SHV-1 [9]): about 10 fold |
| C[C@]1(Cn2ccnn2)[C@H](C(=O)O)N2C(=O)C[C@H]2S1(=O)=O [tazobactam, reference compound] |  |  |  |  | 5 | 21 mm | 14 mm | 6 mm | 0.040 ± 0.001 s⁻¹ | inhibition of SHV-1 expressing cells (E. coli DH10B SHV-1; DH10B E. coli, high SHV-1 expression): Inhibition was not observed |
| CC1(COC(=O)CCC(=O)O)C(C(=O)O)N2C(=O)CC2S1(=O)=O (centres unmarked) [PSR-4-155] | 440 ± 40 nM | 2700 ± 200 nM | 2100 ± 200 nM | 50000 ± 10000 M⁻¹ s⁻¹ | >1500 | 13 mm | 6 mm | 6 mm | >0.2 s⁻¹ | Ki fold higher compared to PSR-4-157 (wt SHV-1; SHV-1): ~2 fold; KI fold higher compared to PSR-4-157 (SHV-1 [2]; SHV-1): ~2 fold; kinact/KI fold lower compared to PSR-4-157 (SHV-1 [2]; SHV-1): 2 fold |
